# Target: D2 receptor (Homo sapiens, UniProt P14416)
# Assay: [3H]Thymidine uptake assay for D2 intrinsic activity
# Format: cell-based
# Details: Table 1; test compound 1 μM; 1 μM Quinpirole = 100% intrinsic activity
# Sequence of D2 receptor (P14416 whole entry): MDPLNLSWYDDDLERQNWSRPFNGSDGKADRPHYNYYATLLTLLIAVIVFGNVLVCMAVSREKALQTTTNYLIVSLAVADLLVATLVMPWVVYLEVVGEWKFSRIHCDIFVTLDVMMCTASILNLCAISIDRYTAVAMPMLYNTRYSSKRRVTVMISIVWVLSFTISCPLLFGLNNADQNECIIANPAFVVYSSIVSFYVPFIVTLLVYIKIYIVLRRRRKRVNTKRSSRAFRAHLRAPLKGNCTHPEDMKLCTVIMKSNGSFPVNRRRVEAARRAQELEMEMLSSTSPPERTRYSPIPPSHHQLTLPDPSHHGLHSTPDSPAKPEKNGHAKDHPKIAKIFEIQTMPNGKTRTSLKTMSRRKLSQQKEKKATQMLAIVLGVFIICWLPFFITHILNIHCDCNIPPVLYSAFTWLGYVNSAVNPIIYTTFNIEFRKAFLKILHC
row,Structure (SMILES),Emax at 1 µM
1,"O=c1ccc2ccc(OCCCCN3CCN(c4ncccn4)CC3)nc2[nH]1 [Example B30, 7-[4-(4-Pyrimidin-2-yl-piperazin-1-yl)-butoxy]-1H-[1,8]naphthyridin-2-one]",83%
2,"COc1ccnc(N2CCN(CCCCOc3ccc4ccc(=O)[nH]c4n3)CC2)n1 [Example B31, 7-{4-[4-(4-Methoxy-pyrimidin-2-yl)-piperazin-1-yl]-butoxy}-1H-[1,8]naphthyridin-2-one]",76%
3,"O=c1ccc2ccc(OCCCCN3CCN(c4cccc5c4CCC5)CC3)nc2[nH]1 [Example B32, 7-[4-(4-Indan-4-yl-piperazin-1-yl)-butoxy]-1H-[1,8]naphthyridin-2-one]",19%
4,"O=c1ccc2ccc(OCCCCN3CCN(c4cccc5c4CCCC5)CC3)nc2[nH]1 [Example B33, 7-{4-[4-(5,6,7,8-Tetrahydro-naphthalen-1-yl)-piperazin-1-yl]-butoxy}-1H-[1,8]naphthyridin-2-one]",26%
5,"O=C1CCCc2cccc(N3CCN(CCCCOc4ccc5ccc(=O)[nH]c5n4)CC3)c21 [Example B35, 7-{4-[4-(8-Oxo-5,6,7,8-tetrahydro-naphthalen-1-yl)-piperazin-1-yl]-butoxy}-1H-[1,8]naphthyridin-2-one]",20%
6,"CC1(C)CCc2cccc(N3CCN(CCCCOc4ccc5ccc(=O)[nH]c5n4)CC3)c2C1=O [Example B36, 7-{4-[4-(7,7-Dimethyl-8-oxo-5,6,7,8-tetrahydro-naphthalen-1-yl)-piperazin-1-yl]-butoxy}-1H-[1,8]naphthyridin-2-one]",39%
7,"O=C1CCc2cccc(N3CCN(CCCCOc4ccc5ccc(=O)[nH]c5n4)CC3)c2C1 [Example B40, 7-{4-[4-(7-Oxo-5,6,7,8-tetrahydro-naphthalen-1-yl)-piperazin-1-yl]-butoxy}-1H-[1,8]naphthyridin-2-one]",36%
8,"O=c1ccc2ccc(OCCCCN3CCN(c4cccc5c4CCCC5(F)F)CC3)nc2[nH]1 [Example B43, 7-{4-[4-(5,5-Difluoro-5 6,7,8-tetrahydro-naphthalen-1-yl)-piperazin-1-yl]-butoxy}-1H-[1,8]naphthyridin-2-one]",18%
9,"O=C1CCc2cccc(N3CCN(CCCCOc4ccc5ccc(=O)[nH]c5n4)CC3)c21 [Example B44, 7-{4-[4-(3-Oxo-indan-4-yl)-piperazin-1-yl]-butoxy}-1H-[1,8]naphthyridin-2-one]",27%
10,"O=c1ccc2ccc(OCCCCN3CCN(c4cccc5c4CC(F)(F)C5)CC3)nc2[nH]1 [Example B46, 7-{4-[4-(2,2-Difluoro-indan-4-yl)-piperazin-1-yl]-butoxy}-1H-[1,8]naphthyridin-2-one]",29%
11,"O=c1ccc2ccc(OCCCCN3CCN(c4cccc5ccccc45)CC3)nc2[nH]1 [Example B47, 7-[4-(4-Naphthalen-1-yl-piperazin-1-yl)-butoxy]-1H-[1,8]naphthyridin-2-one]",44%
12,"O=c1ccc2ccc(OCCCCN3CCN(c4cccc5cccc(F)c45)CC3)nc2[nH]1 [Example B50, 7-{4-[4-(8-Fluoro-naphthalen-1-yl)-piperazin-1-yl]-butoxy}-1H-[1,8]naphthyridin-2-one]",51%
13,"O=c1ccc2ccc(OCCCCN3CCN(c4cccc5c(F)cccc45)CC3)nc2[nH]1 [Example B51, 7-{4-[4-(5-Fluoro-naphthalen-1-yl)-piperazin-1-yl]-butoxy}-1H-[1,8]naphthyridin-2-one]",36%
14,"O=c1ccc2ccc(OCCCCN3CCN(c4ccc(F)c5ccccc45)CC3)nc2[nH]1 [Example B52, 7-{4-[4-(4-Fluoro-naphthalen-1-yl)-piperazin-1-yl]-butoxy}-1H-[1,8]naphthyridin-2-one]",17%
15,"O=c1ccc2ccc(OCCCCN3CCN(c4c(F)ccc5ccccc45)CC3)nc2[nH]1 [Example B54, 7-{4-[4-(2-Fluoro-naphthalen-1-yl)-piperazin-1-yl]-butoxy}-1H-[1,8]naphthyridin-2-one]",15%
16,"O=c1ccc2ccc(OCCCCN3CCN(c4cccc5ccc(Cl)cc45)CC3)nc2[nH]1 [Example B56, 7-{4-[4-(7-Chloro-naphthalen-1-yl)-piperazin-1-yl]-butoxy}-1H-[1,8]naphthyridin-2-one]",28%
17,"O=c1ccc2ccc(OCCCCN3CCN(c4cccc5cc(Cl)ccc45)CC3)nc2[nH]1 [Example B57, 7-{4-[4-(6-Chloro-naphthalen-1-yl)-piperazin-1-yl]-butoxy}-1H-[1,8]naphthyridin-2-one]",21%
18,"O=c1ccc2ccc(OCCCCN3CCN(c4cccc5c(Cl)cccc45)CC3)nc2[nH]1 [Example B58, 7-{4-[4-(5-Chloro-naphthalen-1-yl)-piperazin-1-yl]-butoxy}-1H-[1,8]naphthyridin-2-one]",42%
19,"O=c1ccc2ccc(OCCCCN3CCN(c4cccc5cccc(Cl)c45)CC3)nc2[nH]1 [Example B59, 7-{4-[4-(8-Chloro-naphthalen-1-yl)-piperazin-1-yl]-butoxy}-1H-[1,8]naphthyridin-2-one]",37%
20,"COc1ccc2cccc(N3CCN(CCCCOc4ccc5ccc(=O)[nH]c5n4)CC3)c2c1 [Example B60, 7-{4-[4-(7-Methoxy-naphthalen-1-yl)-piperazin-1-yl]-butoxy}-1H-[1,8]naphthyridin-2-one]",28%
21,"COc1ccc2c(N3CCN(CCCCOc4ccc5ccc(=O)[nH]c5n4)CC3)cccc2c1 [Example B61, 7-{4-[4-(6-Methoxy-naphthalen-1-yl)-piperazin-1-yl]-butoxy}-1H-[1,8]naphthyridin-2-one]",18%
22,"CC(=O)c1ccc2cccc(N3CCN(CCCCOc4ccc5ccc(=O)[nH]c5n4)CC3)c2c1 [Example B62, 7-{4-[4-(7-Acetyl-naphthalen-1-yl)-piperazin-1-yl]-butoxy}-1H-[1,8]naphthyridin-2-one]",21%
23,"CC(=O)c1ccc2c(N3CCN(CCCCOc4ccc5ccc(=O)[nH]c5n4)CC3)cccc2c1 [Example B63, 7-{4-[4-(6-Acetyl-naphthalen-1-yl)-piperazin-1-yl]-butoxy}-1H-[1,8]naphthyridin-2-one]",18%
24,"CC(=O)c1cccc2c(N3CCN(CCCCOc4ccc5ccc(=O)[nH]c5n4)CC3)cccc12 [Example B64, 7-{4-[4-(5-Acetyl-naphthalen-1-yl)-piperazin-1-yl]-butoxy}-1H-[1,8]naphthyridin-2-one]",27%
25,"CC(=O)c1ccc(N2CCN(CCCCOc3ccc4ccc(=O)[nH]c4n3)CC2)c2ccccc12 [Example B65, 7-{4-[4-(4-Acetyl-naphthalen-1-yl)-piperazin-1-yl]-butoxy}-1H-[1,8]naphthyridin-2-one]",10%
26,"CC(=O)c1ccc2ccccc2c1N1CCN(CCCCOc2ccc3ccc(=O)[nH]c3n2)CC1 [Example B66, 7-{4-[4-(2-Acetyl-naphthalen-1-yl)-piperazin-1-yl]-butoxy}-1H-[1,8]naphthyridin-2-one]",33%
27,"N#Cc1ccc2cccc(N3CCN(CCCCOc4ccc5ccc(=O)[nH]c5n4)CC3)c2c1 [Example B67, 8-{4-[4-(7-Oxo-7,8-dihydro-[1,8]naphthyridin-2-yloxy)-butyl]-piperazin-1-yl}-naphthalene-2-carbonitrile]",39%
28,"Cn1c(=O)ccc2ccc(OCCCCN3CCN(c4cccc5ccccc45)CC3)nc21 [Example B68, 1-Methyl-7-[4-(4-naphthalen-1-yl-piperazin-1-yl)-butoxy]-1H-[1,8]naphthyridin-2-one]",17%
29,"O=c1ccc2ccc(OCCCN3CCN(c4cccc(Cl)c4Cl)CC3)nc2[nH]1 [Example C1, 7-{3-[4-(2,3-Dichloro-phenyl)-piperazin-1-yl]-propoxy}-1H-[1,8]naphthyridin-2-one]",43%
30,"O=c1ccc2ccc(OCCCN3CCN(c4cccc5ccccc45)CC3)nc2[nH]1 [Example C2, 7-[3-(4-Naphthalen-1-yl-piperazin-1-yl)-propoxy]-1H-[1,8]naphthyridin-2-one]",24%

# Same assay, conditions: Table 2; test compound 1 μM; 1 μM Quinpirole = 100% intrinsic activity
row,Structure (SMILES),Emax at 1 µM
1,"COc1ccc2cccc(N3CCN(CCCCOc4ccc5ccc(=O)[nH]c5n4)CC3)c2n1 [Example B30′, 7-{4-[4-(2-Methoxy-quinolin-8-yl)-piperazin-1-yl]-butoxy}-1H-[1,8]naphthyridin-2-one]",42%
2,"O=c1ccc2ccc(OCCCCN3CCN(c4cccc5ncc(F)cc45)CC3)nc2[nH]1 [Example B34′, 7-{4-[4-(3-Fluoro-quinolin-5-yl)-piperazin-1-yl]-butoxy}-1H-[1,8]naphthyridin-2-one]",35%
3,"O=c1ccc2ccc(OCCCCN3CCN(c4cccc5ccc(=O)[nH]c45)CC3)nc2[nH]1 [Example B36′, 7-{4-[4-(2-Oxo-1,2-dihydro-quinolin-8-yl)-piperazin-1-yl]-butoxy}-1H-[1,8]naphthyridin-2-one]",36%
4,"O=C1CCc2cccc(N3CCN(CCCCOc4ccc5ccc(=O)[nH]c5n4)CC3)c2N1 [Example B37′, 7-{4-[4-(2-Oxo-1,2,3,4-tetrahydro-quinolin-8-yl)-piperazin-1-yl]-butoxy}-1H-[1,8]naphthyridin-2-one]",39%
5,"CN1C(=O)CCc2cccc(N3CCN(CCCCOc4ccc5ccc(=O)[nH]c5n4)CC3)c21 [Example B38′, 7-{4-[4-(1-Methyl-2-oxo-1,2,3,4-tetrahydro-quinolin-8-yl)-piperazin-1-yl]-butoxy}-1H-[1,8]naphthyridin-2-one]",46%
6,"O=c1ccc2ccc(OCCCCN3CCN(c4cccc5nonc45)CC3)nc2[nH]1 [Example B39′, 7-[4-(4-Benzo[1,2,5]oxadiazol-4-yl-piperazin-1-yl)-butoxy]-1H-[1,8]naphthyridin-2-one]",29%
7,"O=c1ccc2ccc(OCCCCN3CCN(c4cccc5nsnc45)CC3)nc2[nH]1 [Example B40′, 7-[4-(4-Benzo[1,2,5]thiadiazol-4-yl-piperazin-1-yl)-butoxy]-1H-[1,8]naphthyridin-2-one]",49%
8,"CC1(C)CC(=O)Nc2nc(OCCCCN3CCN(c4cccc5cccnc45)CC3)ccc21 [Example C1′, 4,4-Dimethyl-7-[4-(4-quinolin-8-yl-piperazin-1-yl)-butoxy]-3,4-dihydro-1H-[1,8]naphthyridin-2-one]",38%
